What all share (assay type): cell-based
For one data set, the system named is HCV 1b replicon. Description: Antiviral activity assay in HCV replicon system (Huh7 1b cells, luciferase reporter). As to conditions: Hepatitis C virus, Huh-7; Huh7 1b cells with HCV 1b replicon, Bright-Glo luciferase, 72 h; read-out: EC50. The source says:
The cell line Huh7 1b, which was provided by WuXi AppTec Co., Ltd. in Shanghai, contained an HCV 1b replicon with a stable Luciferase (Luc) reporter. It was constructed by cloning HCV nonstructural protein gene, neo (G418 resistance) and luciferase reporter gene into the pBR vector through gene recombination technology. Then the vector carrying the HCV replicon was transfected into Huh7 cells, and the transfected Huh7 cells were screened by G418 resistance. The HCV replicon was stably replicated, and the related protein and luciferase were stably expressed in Huh7 cells. The cells model was used for in-vitro screen of anti-HCV compounds. The anti-HCV activity of the compounds was measured by detecting the level of luciferase expression. See Lohmann V, et al. 1999. Replication of subgenomic hepatitis C virus RNAs in a hepatoma cell line. Science. 285(5424):110-113.
The control drug used in this experimental example was the compound of Example 25 in WO 2008/121634 (PCT/US2008/058183), i.e. (S)-2-{[(2R,3R,4R,5R)-5-(2,4-dioxo-3,4-dihydro-2H-pyrimidin-1-yl)-4-fluoro-3-hydr oxy-4-methyl-tetrahydro-furan-2-ylmethoxy]-phenoxy-phosphorylamino}-propanoic acid isopropyl ester. This compound was prepared according to the method described in J. Org. chem, 2011, 76, 8311-8319, and identified by H-NMR and mass spectrometry.
• 2.1 compound preparation: adding each of the compounds listed in Table 2 to 96-well plates using a POD™ 810 Automation Platform (LabCyte Corporation, USA), with 10 μM of each of the compounds as a starting concentration and in duplicate; serially diluting each of the compounds in 3-fold fashion and formulating 10 concentrations, with the final concentration of DMSO being 0.5%; • 2.2 cells preparation: seeding the Huh71b cells into 96-well plates respectively with a volume of 125 μl and 8×10^3 cells/well, and incubating in a 37° C., 5% CO2 incubator for 72 h; • 2.3 detection of cell activity: adding 30 μl per cell of the CellTiter-Fluor™ Reagent, incubating in a 37° C., 5% CO2 incubator for 1 h, measuring the fluorescence signal values with a fluorometer, and using the obtained data for calculation of cytotoxicities of the compounds; • 2.4 Bright-Glo detection: adding 100 μl per well of the Bright-Glo™ Luciferase Substrate, using a chemiluminescence detection system EnVision™ (PerkinElmer, USA) to detect the fluorescence signal values within 5 minutes, and using the obtained data for calculation of potencies of the compounds. • 2.5 data processing: converting the obtained data to a percentage of cell viability (Viability %) using the following formula:
[formula] • CPD: fluorescence signal value of the well added with the compound • ZPE (Zero percent effect): fluorescence signal value of the control well with zero percent effect. • Processing the raw data to calculate a percentage of inhibition (Inhibition %) using the following formula:
[formula] • CPD: fluorescence signal value of the well added with the compound; • HPE (Hundred percent effect): fluorescence signal value of the control well with hundred percent effect; • ZPE (Zero percent effect): fluorescence signal value of the control well with zero percent effect.
The inhibition percentage was processed by the GraphPad Prism software to obtain the corresponding curves and EC50 values.
(In general: A replicon is a self-replicating genome or part of one, used to study replication in cells.)

Data set [1] can be described thus: Cell viability detection (MTT) in the HCVcc system. The following applies: human, Huh 7.5.1 cells infected with J399EM virus (HCVcc); Huh 7.5.1 cells, MTT, 72 hr. On the procedure: (§1) Huh 7.5.1 cells, provided by Shanghai Institute of Materia Medica, Chinese Academy of Sciences.
(§2) • 1) Huh 7.5.1 cells preparation: collecting the Huh7.5.1 cells in logarithmic phase, resuspending in DMEM complete culture medium, seeding into 96-well plates (7×10^3 cells/well), and incubating in a 37° C., 5% CO2 incubator for 24 h; • 2) virus infection: resuspending J399EM viruses in DMEM complete culture medium, adding the virus supernatant (MOI≈0.1) to the above 96-well plates, and washing with PBS after 8 hours of infection; • 3) drug treatment: adding various concentrations of the compounds to the Huh7.5.1 cells infected by J399EM viruses, with each concentration in duplicate; setting the control group with zero percent effect (ZPE) and the control group with hundred percent effect (HPE); replacing the compound with the DMEM complete culture medium containing 0.5% DMSO in ZPE group, and using the cells not infected with viruses in HPE group. • 4) cells incubation: incubating the 96-well plates in a 37° C., 5% CO2 incubator for 72 hr; • 5) anti-HCV activity detection: reading the relative fluorescence units (RFU) of each well by EnVision® Multi label Plate readers after incubation, and calculating the anti-HCV activity of the compounds using the obtained data according to the following formula: Inhibition %=(RFUZPE−RFUCPD)/(RFUZPE−RFUHPE)×100 • wherein RFUZPE represents the relative fluorescence units of the control group with zero percent effect and RFUCPD represents the relative fluorescence units of the corresponding compound group, and RFUHPE represents the relative fluorescence units of the control group with hundred percent effect. • 6) Cell viability detection: adding MTT solution to each well, incubating in a 37° C., 5% CO2 incubator for 4 hr, followed by addition of MTT dissolving solution, reading optical density (OD) of each well at 570 nm by the Multi label Plate readers after 6 hr, calculating the cytotoxicity of the compounds using the obtained data according to the following formula: Viability %=ODCPD/ODZPE×100 • wherein ODZPE represents the optical density of the control group with zero percent effect, and ODCPD represents the optical density of the corresponding compound; • 7) Data processing: processing the Inhibition %, Viability % by GraphPad Prism Software respectively, and obtaining the half maximal effective concentration (EC50) values and half maximal cytotoxic concentration (CC50) values of the compounds against the HVCcc GT2a viruses.

In the next data set the test system is Huh 7.5.1 cells. Put plainly: Cell viability detection (MTT) in the HCVcc system. The following applies: HCVcc system. Here is the method: as §1, §2

The structures appear in SMILES notation.

As a reminder, the EC50 is the midpoint of the concentration-response curve. For orientation: CC50 means the concentration giving 50% cytotoxicity. A low value points to greater toxicity to the cells. With `CC(C)OC(=O)[C@H](C)NP(=O)(OC[C@H]1O[C@@H](n2ccc(=O)[nH]c2=O)[C@](C)(F)[C@@H]1O)Oc1ccc(-c2ccccc2)cc1` (stereo partly drawn) [Example 1, (2S)-2-((([1,1′-biphenyl]-4-yloxy)(((2R,3R,4R,5R)-5-(2,4-dioxo-3,4-dihydropyrimidin-1(2H)-yl)-4-fluoro-3-hydroxy-4-methyltetrahydrofuran-2-yl)methoxy)phosphoryl)amino)propanoic Acid Isopropyl Ester], the 50% effective concentration (EC50) in the data set with HCV 1b replicon was determined as 56 nM. Moreover, in data set [1], the CC50 at 72 h is greater than 10 µM. For the same compound, the “cell toxicity compared with the positive control” value in the data set with Huh 7.5.1 cells is “less”.

These data come from patent publication US9963480B2, “Nucleoside phosphoramidate compound and use thereof” (priority 2013, dated 2018).
